We go through 11 molecules from ChEMBL document CHEMBL4765469, “2-((3,5-Dinitrobenzyl)thio)quinazolinones: Potent Antimycobacterial Agents Activated by Deazaflavin (F)-Dependent Nitroreductase (Ddn)” (J Med Chem, 2021).

The structures appear in SMILES notation. Values after ≈ are worked out from the molar mass of the structure shown. Active and inactive are the calls of the source. No cut-off for these calls is given here.

Test [1] concerns Mycobacterium tuberculosis. Briefly: Antitubercular activity against Mycobacterium tuberculosis resistant mutants generated by plating on 7H11/0ADC agar plates in presence of 3.75 to 15 uM 2-((3,5-Dinitrobenzyl)thio)quinazolin-4(3H)-one followed by sensitivity testing. It counts as functional, organism-based.
In test [2] the test system is Mycobacterium tuberculosis. Briefly: Antitubercular activity against Mycobacterium tuberculosis T2 expressing nitroreductase rv3547 A76E mutant assessed as inhibition of all visible growth grown under 7H9/ glucose liquid culture incubated for 7 to 14 days. It counts as functional. The conditions noted are these: time 7-14 day.
The subject of test [3] is Mycobacterium tuberculosis. Briefly: Antitubercular activity against Mycobacterium tuberculosis T3 with fgd mutant deficient in F420 reduction assessed as inhibition of all visible growth grown under 7H9/ glucose liquid culture incubated for 7 to 14 days. It counts as functional. The conditions noted are these: time 7-14 day.
Test [4] relates to Mycobacterium tuberculosis. Briefly: Antitubercular activity against Mycobacterium tuberculosis 5A1 with fbiC mutant deficient in cofactor F420 biosynthesis assessed as inhibition of all visible growth grown under 7H9/ glucose liquid culture incubated for 7 to 14 days. Type of test: functional. The conditions noted are these: time 7-14 day.
The nature of test [5]: Ratio of MIC for antitubercular activity against Mycobacterium tuberculosis resistant mutants generated by plating on 7H11/0ADC agar plates in presence of 3.75 to 15 uM 2-((3,5-Dinitrobenzyl)thio)quinazolin-4(3H)-one to MIC for antitubercular activity against wild type Mycobacterium tuberculosis H37Rv ATCC 27294. It counts as functional.

Turning to `O=[N+]([O-])c1cn2c(n1)OC[C@@H](OCc1ccc(OC(F)(F)F)cc1)C2`, in test [1], the outcome was inactive.
`O=c1[nH]c(SCc2cc([N+](=O)[O-])cc([N+](=O)[O-])c2)nc2ccc(N3CCOCC3)cc12`: the entries for the “MIC>99” value in test [2], in test [3] and in test [4] were 19 µM (≈ 8.43 µg/mL), “>=50 uM” and “>=50 uM”, respectively.
`O=c1[nH]c(SCc2cc([N+](=O)[O-])cc([N+](=O)[O-])c2)nc2ccccc12`: the Ratio in test [5] was above 40. The results for the “MIC>99” value in test [2], in test [3] and in test [4] were 37 µM (≈ 13.3 µg/mL), 37 µM (≈ 13.3 µg/mL) and above 50 µM, respectively.
Take `O=c1[nH]c(SCc2cc([N+](=O)[O-])cc([N+](=O)[O-])c2)nc2ccc(Br)cc12`: the “MIC>99” value in test [2], in test [3] and in test [4] was above 50 µM in each case.
Consider `Cc1ccc2nc(SCc3cc([N+](=O)[O-])cc([N+](=O)[O-])c3)[nH]c(=O)c2c1`, for which the “MIC>99” value in test [2], in test [3] and in test [4] was above 50 µM each time.
On to `CN1CCN(c2ccc3nc(SCc4cc([N+](=O)[O-])cc([N+](=O)[O-])c4)[nH]c(=O)c3c2)CC1`, for which the “MIC>99” value turned out to be 37 µM (≈ 16.9 µg/mL) in test [2], 25 µM (≈ 11.4 µg/mL) in test [3] and 37 µM (≈ 16.9 µg/mL) in test [4].
Regarding `C[C@]1(COc2ccc(N3CCC(Oc4ccc(OC(F)(F)F)cc4)CC3)cc2)Cn2cc([N+](=O)[O-])nc2O1`, the result in test [1] was inactive.
For `O=c1[nH]c(SCc2cc([N+](=O)[O-])cc([N+](=O)[O-])c2)nc2cccnc12`, the “MIC>99” value in test [2] was determined as 50 µM (≈ 18 µg/mL); in test [3], 37 µM (≈ 13.3 µg/mL); in test [4] it was 37 µM (≈ 13.3 µg/mL).
With `CO[C@H]1/C=C/O[C@@]2(C)Oc3c(C)c(O)c4c(O)c(c(/C=N/N5CCN(C)CC5)c(O)c4c3C2=O)NC(=O)/C(C)=C\C=C\[C@H](C)[C@H](O)[C@@H](C)[C@@H](O)[C@@H](C)[C@H](OC(C)=O)[C@@H]1C`, in test [1], the outcome was Active.
In the case of `O=c1[nH]c(SCc2cc([N+](=O)[O-])cc([N+](=O)[O-])c2)nc2ccc(F)cc12`, the “MIC>99” value in test [2] is “>=50 uM”; in test [3] it was “>=50 uM”; in test [4] it was above 50 µM.
As for `NNC(=O)c1ccncc1`, the outcome in test [1] was Active.
